Source: PubChem BioAssay (NCI)
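A five-concentration, 48-hour dose response in 96-well plates underlies each endpoint, interpolated linearly between surrounding concentrations. GI50 = concentration required for 50% inhibition of growth. At the TGI there is no net growth.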

Legend:
Test in all cases: growth of human tumour cells (NCI), 48 h
[1] = tested on: OVCAR-8 ovarian
[2] = tested on: HL-60(TB) leukemia
[3] = tested on: MDA-MB-435
[4] = tested on: SNB-19 CNS
[5] = tested on: HOP-92 NSCLC
[6] = tested on: TK-10 renal
[7] = tested on: DU-145 prostate
[8] = tested on: SF-268 CNS
[9] = tested on: BT-549 breast
[10] = tested on: SR leukemia
[11] = tested on: RPMI-8226 leukemia
[12] = tested on: SK-MEL-28 melanoma
[13] = tested on: U251 CNS
[14] = tested on: SF-295 CNS
[15] = tested on: OVCAR-5 ovarian
[16] = tested on: 786-0 renal
[17] = tested on: HOP-62 NSCLC
[18] = tested on: MOLT-4 leukemia
[19] = tested on: NCI-H460 lung
[20] = tested on: LOX IMVI melanoma
[21] = tested on: UACC-62 melanoma
[22] = tested on: NCI/ADR-RES ovarian
[23] = tested on: SK-OV-3 ovarian
[24] = tested on: MCF7 breast
[25] = tested on: RXF 393 renal
[26] = tested on: NCI-H522 lung
[27] = tested on: SK-MEL-2 melanoma
[28] = tested on: OVCAR-4 ovarian
[29] = tested on: OVCAR-3 ovarian
[30] = tested on: KM12 colon
[31] = tested on: SF-539 CNS
[32] = tested on: EKVX NSCLC
[33] = tested on: SNB-75 CNS
[34] = tested on: A498 renal
[35] = tested on: CAKI-1 renal
[36] = tested on: HCT-15 colon
[37] = tested on: M14 melanoma
[38] = tested on: HCT-116 colon
[39] = tested on: IGROV1 ovarian
[40] = tested on: SN12C renal
[41] = tested on: NCI-H23 lung
[42] = tested on: MDA-MB-231 breast
[43] = tested on: SW-620 colon
[44] = tested on: HT29 colon
[45] = tested on: ACHN renal
[46] = tested on: COLO 205 colon
[47] = tested on: NCI-H226 lung
[48] = tested on: A549 NSCLC
[49] = tested on: HS 578T breast
[50] = tested on: K-562 leukemia
[51] = tested on: PC-3 prostate
[52] = tested on: SK-MEL-5 melanoma

**Q.** How did the GI50 [1] turn out when `O=c1c(Cl)nnc2sc3ccccc3n12` was run?
**A.** The GI50 was 40.8 µM.

**Q.** And the TGI [1]?
**A.** Its TGI is over 100 µM.

**Q.** And the GI50 [2]?
**A.** The GI50 was 18.3 µM.

**Q.** What about the TGI [2] of the same molecule?
**A.** The TGI was over 100 µM.

**Q.** And the GI50 [3]?
**A.** Its GI50 is 42 µM.

**Q.** What about the TGI [3] of the same molecule?
**A.** Its TGI is over 100 µM.

**Q.** What about the GI50 [4] of the same molecule?
**A.** Its GI50 is 77.5 µM.

**Q.** And the TGI [4]?
**A.** Its TGI is over 100 µM.

**Q.** What about the GI50 [5] of the same molecule?
**A.** The GI50 was 20.6 µM.

**Q.** What about the TGI [5] of the same molecule?
**A.** Its TGI is over 100 µM.

**Q.** What about the GI50 [6] of the same molecule?
**A.** The GI50 was 8.15 µM.

**Q.** And the TGI [6]?
**A.** Its TGI is 90.7 µM.

**Q.** What about the GI50 [7] of the same molecule?
**A.** Its GI50 is 57 µM.

**Q.** And the TGI [7]?
**A.** The TGI was over 100 µM.

**Q.** What about the GI50 [8] of the same molecule?
**A.** Its GI50 is 51.1 µM.

**Q.** What about the TGI [8] of the same molecule?
**A.** The TGI was over 100 µM.

**Q.** What about the GI50 [9] of the same molecule?
**A.** The GI50 was 64.9 µM.

**Q.** What about the TGI [9] of the same molecule?
**A.** The TGI was over 100 µM.

**Q.** And the GI50 [10]?
**A.** The GI50 was 13.1 µM.

**Q.** And the TGI [10]?
**A.** Its TGI is over 100 µM.

**Q.** What about the GI50 [11] of the same molecule?
**A.** Its GI50 is 27.9 µM.

**Q.** And the TGI [11]?
**A.** The TGI was over 100 µM.

**Q.** What about the GI50 [12] of the same molecule?
**A.** The GI50 was 59 µM.

**Q.** And the TGI [12]?
**A.** Its TGI is over 100 µM.

**Q.** And the GI50 [13]?
**A.** Its GI50 is 30.9 µM.

**Q.** And the TGI [13]?
**A.** The TGI was 85.3 µM.

**Q.** What about the GI50 [14] of the same molecule?
**A.** The GI50 was 45.6 µM.

**Q.** What about the TGI [14] of the same molecule?
**A.** Its TGI is over 100 µM.

**Q.** What about the GI50 [15] of the same molecule?
**A.** The GI50 was 54.1 µM.

**Q.** And the TGI [15]?
**A.** Its TGI is over 100 µM.

**Q.** What about the GI50 [16] of the same molecule?
**A.** Its GI50 is 64.7 µM.

**Q.** And the TGI [16]?
**A.** Its TGI is over 100 µM.

**Q.** And the GI50 [17]?
**A.** Its GI50 is 67.4 µM.

**Q.** What about the TGI [17] of the same molecule?
**A.** Its TGI is over 100 µM.

**Q.** And the GI50 [18]?
**A.** Its GI50 is 19.6 µM.

**Q.** What about the TGI [18] of the same molecule?
**A.** The TGI was over 100 µM.

**Q.** What about the GI50 [19] of the same molecule?
**A.** The GI50 was 37.7 µM.

**Q.** And the TGI [19]?
**A.** Its TGI is over 100 µM.

**Q.** And the GI50 [20]?
**A.** The GI50 was 30.5 µM.

**Q.** And the TGI [20]?
**A.** Its TGI is 64.5 µM.

**Q.** And the GI50 [21]?
**A.** Its GI50 is 40.8 µM.

**Q.** And the TGI [21]?
**A.** Its TGI is over 100 µM.

**Q.** And the GI50 [22]?
**A.** The GI50 was 13.3 µM.

**Q.** What about the TGI [22] of the same molecule?
**A.** The TGI was 41.9 µM.

**Q.** And the GI50 [23]?
**A.** The GI50 was 59.9 µM.

**Q.** What about the TGI [23] of the same molecule?
**A.** Its TGI is over 100 µM.

**Q.** What about the GI50 [24] of the same molecule?
**A.** The GI50 was 33.6 µM.

**Q.** And the TGI [24]?
**A.** Its TGI is over 100 µM.

**Q.** What about the GI50 [25] of the same molecule?
**A.** Its GI50 is 27.8 µM.

**Q.** And the TGI [25]?
**A.** The TGI was 81.9 µM.

**Q.** And the GI50 [26]?
**A.** Its GI50 is over 100 µM.

**Q.** And the TGI [26]?
**A.** The TGI was over 100 µM.

**Q.** And the GI50 [27]?
**A.** The GI50 was over 100 µM.

**Q.** And the TGI [27]?
**A.** The TGI was over 100 µM.

**Q.** What about the GI50 [28] of the same molecule?
**A.** Its GI50 is 46.9 µM.

**Q.** And the TGI [28]?
**A.** Its TGI is over 100 µM.

**Q.** And the GI50 [29]?
**A.** The GI50 was 34.4 µM.

**Q.** And the TGI [29]?
**A.** The TGI was over 100 µM.

**Q.** What about the GI50 [30] of the same molecule?
**A.** The GI50 was 32.3 µM.

**Q.** And the TGI [30]?
**A.** The TGI was over 100 µM.

**Q.** What about the GI50 [31] of the same molecule?
**A.** Its GI50 is 37.5 µM.

**Q.** What about the TGI [31] of the same molecule?
**A.** Its TGI is over 100 µM.

**Q.** And the GI50 [32]?
**A.** The GI50 was 24.2 µM.

**Q.** And the TGI [32]?
**A.** Its TGI is over 100 µM.

**Q.** What about the GI50 [33] of the same molecule?
**A.** Its GI50 is over 100 µM.

**Q.** What about the TGI [33] of the same molecule?
**A.** Its TGI is over 100 µM.

**Q.** And the GI50 [34]?
**A.** Its GI50 is over 100 µM.

**Q.** And the TGI [34]?
**A.** Its TGI is over 100 µM.

**Q.** What about the GI50 [35] of the same molecule?
**A.** Its GI50 is 0.813 µM.

**Q.** What about the TGI [35] of the same molecule?
**A.** Its TGI is 6.9 µM.

**Q.** And the GI50 [36]?
**A.** Its GI50 is 16.5 µM.

**Q.** What about the TGI [36] of the same molecule?
**A.** Its TGI is 54.3 µM.

**Q.** What about the GI50 [37] of the same molecule?
**A.** The GI50 was 22.2 µM.

**Q.** And the TGI [37]?
**A.** Its TGI is 91.9 µM.

**Q.** What about the GI50 [38] of the same molecule?
**A.** The GI50 was 20.4 µM.

**Q.** And the TGI [38]?
**A.** The TGI was 68.3 µM.

**Q.** And the GI50 [39]?
**A.** The GI50 was 31.9 µM.

**Q.** And the TGI [39]?
**A.** The TGI was over 100 µM.

**Q.** What about the GI50 [40] of the same molecule?
**A.** Its GI50 is 24.6 µM.

**Q.** What about the TGI [40] of the same molecule?
**A.** Its TGI is over 100 µM.

**Q.** What about the GI50 [41] of the same molecule?
**A.** The GI50 was 25.2 µM.

**Q.** What about the TGI [41] of the same molecule?
**A.** The TGI was over 100 µM.

**Q.** What about the GI50 [42] of the same molecule?
**A.** The GI50 was 14.2 µM.

**Q.** And the TGI [42]?
**A.** The TGI was over 100 µM.

**Q.** What about the GI50 [43] of the same molecule?
**A.** The GI50 was 47.7 µM.

**Q.** And the TGI [43]?
**A.** Its TGI is over 100 µM.

**Q.** What about the GI50 [44] of the same molecule?
**A.** The GI50 was 53.7 µM.

**Q.** And the TGI [44]?
**A.** Its TGI is over 100 µM.

**Q.** What about the GI50 [45] of the same molecule?
**A.** The GI50 was 2.3 µM.

**Q.** And the TGI [45]?
**A.** The TGI was 9.92 µM.

**Q.** What about the GI50 [46] of the same molecule?
**A.** Its GI50 is 47 µM.

**Q.** And the TGI [46]?
**A.** Its TGI is over 100 µM.

**Q.** And the GI50 [47]?
**A.** Its GI50 is 43.1 µM.

**Q.** What about the TGI [47] of the same molecule?
**A.** Its TGI is over 100 µM.

**Q.** And the GI50 [48]?
**A.** The GI50 was 39.7 µM.

**Q.** What about the TGI [48] of the same molecule?
**A.** Its TGI is over 100 µM.

**Q.** What about the GI50 [49] of the same molecule?
**A.** Its GI50 is 85.4 µM.

**Q.** And the TGI [49]?
**A.** Its TGI is over 100 µM.

**Q.** And the GI50 [50]?
**A.** Its GI50 is 26 µM.

**Q.** What about the TGI [50] of the same molecule?
**A.** Its TGI is over 100 µM.

**Q.** What about the GI50 [51] of the same molecule?
**A.** The GI50 was 47.8 µM.

**Q.** And the TGI [51]?
**A.** The TGI was over 100 µM.

**Q.** And the GI50 [52]?
**A.** Its GI50 is 37.3 µM.

**Q.** What about the TGI [52] of the same molecule?
**A.** Its TGI is over 100 µM.
